From ChEMBL document CHEMBL4346757, “Synthesis and biological evaluation of 7-methoxy-1-(3,4,5-trimethoxyphenyl)-4,5-dihydro-2H-benzo[e]indazoles as new colchicine site inhibitors” (Bioorg Med Chem Lett, 2019)

Tests used:
HCT-116 = assay: Antiproliferative activity against human HCT116 cells assessed as reduction in cell viability by MTT assay; format: functional, cell-based
NCI-H322M [1] = assay: Growth inhibition of human NCI-H322M cells assessed as cell growth at 0.01 uM after 48 hrs by SRB assay relative to control; format: functional; conditions: read-out: Activity
KM12 = assay: Growth inhibition of human KM12 cells assessed as cell growth at 10 uM after 48 hrs by SRB assay relative to control; format: functional; conditions: KM12, 48 h, read-out: Activity
SR = assay: Growth inhibition of human SR cells assessed as cell growth at 0.01 uM after 48 hrs by SRB assay relative to control; format: functional; conditions: read-out: Activity
HOP-92 [2] = assay: Growth inhibition of human HOP92 cells assessed as cell growth at 10 uM after 48 hrs by SRB assay relative to control; format: functional; conditions: HOP-92, 48 h, read-out: Activity
SN12C [3] = assay: Growth inhibition of human SN12C cells assessed as cell growth at 100 uM after 48 hrs by SRB assay relative to control; format: functional; conditions: read-out: Activity
HOP-92 [4] = assay: Growth inhibition of human HOP92 cells assessed as cell growth at 1 uM after 48 hrs by SRB assay relative to control; format: functional; conditions: HOP-92, 48 h, read-out: Activity
PC-3 = assay: Growth inhibition of human PC3 cells assessed as cell growth at 1 uM after 48 hrs by SRB assay relative to control; format: functional; conditions: PC-3, 48 h, read-out: Activity
SW-620 [5] = assay: Cytotoxicity against human SW620 cells assessed as growth inhibition after 48 hrs by SRB assay; format: functional; conditions: SW-620, 48 h
SF-295 [6] = assay: Cytotoxicity against human SF295 cells assessed as growth inhibition after 48 hrs by SRB assay; format: functional; conditions: SF-295, 48 h
T47D = assay: Growth inhibition of human T47D cells assessed as cell growth at 1 uM after 48 hrs by SRB assay relative to control; format: functional; conditions: read-out: Activity
MDA-MB-468 = assay: Growth inhibition of human MDA-MB-468 cells assessed as cell growth at 0.01 uM after 48 hrs by SRB assay relative to control; format: functional; conditions: MDA-MB-468, 48 h, read-out: Activity
SNB-19 = assay: Cytotoxicity against human SNB19 cells assessed as growth inhibition after 48 hrs by SRB assay; format: functional; conditions: SNB-19, 48 h
SW-620 [7] = assay: Growth inhibition of human SW620 cells assessed as cell growth at 0.01 uM after 48 hrs by SRB assay relative to control; format: functional; conditions: SW-620, 48 h, read-out: Activity
SF-268 = assay: Growth inhibition of human SF268 cells assessed as cell growth at 10 uM after 48 hrs by SRB assay relative to control; format: functional; conditions: SF-268, 48 h, read-out: Activity
DU-145 = assay: Growth inhibition of human DU145 cells assessed as cell growth at 1 uM after 48 hrs by SRB assay relative to control; format: functional; conditions: DU-145, 48 h, read-out: Activity
RPMI-8226 = assay: Growth inhibition of human RPMI8226 cells assessed as cell growth at 1 uM after 48 hrs by SRB assay relative to control; format: functional; conditions: RPMI-8226, 48 h, read-out: Activity
SK-OV-3 = assay: Cytotoxicity against human SKOV3 cells assessed as growth inhibition after 48 hrs by SRB assay; format: functional; conditions: SK-OV-3, 48 h
Hs-578T = assay: Growth inhibition of human Hs 578T cells assessed as cell growth at 100 uM after 48 hrs by SRB assay relative to control; format: functional; conditions: read-out: Activity
A498 = assay: Growth inhibition of human A498 cells assessed as cell growth at 10 uM after 48 hrs by SRB assay relative to control; format: functional; conditions: A498, 48 h, read-out: Activity
OVCAR-5 [8] = assay: Growth inhibition of human OVCAR5 cells assessed as cell growth at 1 uM after 48 hrs by SRB assay relative to control; format: functional; conditions: OVCAR-5, 48 h, read-out: Activity
SN12C [9] = assay: Growth inhibition of human SN12C cells assessed as cell growth at 0.1 uM after 48 hrs by SRB assay relative to control; format: functional; conditions: read-out: Activity
OVCAR-3 = assay: Growth inhibition of human OVCAR3 cells assessed as cell growth at 10 uM after 48 hrs by SRB assay relative to control; format: functional; conditions: OVCAR-3, 48 h, read-out: Activity
SK-MEL-5 = assay: Growth inhibition of human SK-MEL-5 cells assessed as cell growth at 10 uM after 48 hrs by SRB assay relative to control; format: functional; conditions: SK-MEL-5, 48 h, read-out: Activity
HCC 2998 = assay: Growth inhibition of human HCC2998 cells assessed as cell growth at 10 uM after 48 hrs by SRB assay relative to control; format: functional; conditions: HCC 2998, 48 h, read-out: Activity
BT-549 = assay: Growth inhibition of human BT549 cells assessed as cell growth at 0.1 uM after 48 hrs by SRB assay relative to control; format: functional; conditions: BT-549, 48 h, read-out: Activity
OVCAR-5 [10] = assay: Growth inhibition of human OVCAR5 cells assessed as cell growth at 0.1 uM after 48 hrs by SRB assay relative to control; format: functional; conditions: OVCAR-5, 48 h, read-out: Activity
HCT-15 = assay: Growth inhibition of human HCT15 cells assessed as cell growth at 10 uM after 48 hrs by SRB assay relative to control; format: functional; conditions: HCT-15, 48 h, read-out: Activity
OVCAR-4 = assay: Growth inhibition of human OVCAR4 cells assessed as cell growth at 0.1 uM after 48 hrs by SRB assay relative to control; format: functional; conditions: OVCAR-4, 48 h, read-out: Activity
SF-295 [11] = assay: Growth inhibition of human SF295 cells assessed as cell growth at 0.1 uM after 48 hrs by SRB assay relative to control; format: functional; conditions: SF-295, 48 h, read-out: Activity
NCI-H322M [12] = assay: Growth inhibition of human NCI-H322M cells assessed as cell growth at 100 uM after 48 hrs by SRB assay relative to control; format: functional; conditions: read-out: Activity
SK-MEL-2 = assay: Growth inhibition of human SK-MEL-2 cells assessed as cell growth at 100 uM after 48 hrs by SRB assay relative to control; format: functional; conditions: SK-MEL-2, 48 h, read-out: Activity
NCI-H23 = assay: Growth inhibition of human NCI-H23 cells assessed as cell growth at 100 uM after 48 hrs by SRB assay relative to control; format: functional; conditions: NCI-H23, 48 h, read-out: Activity
[13] = read-out: LC50 (the source's name)
[14] = read-out: pLC50 (the source's name) (converted)

## COc1ccc2c(c1)CCc1n[nH]c(-c3cc(OC)c(OC)c(OC)c3)c1-2
HCT-116
  IC50: 0.001 µM
NCI-H322M [1]
  growth at 0.01 µM: 47%
KM12
  growth at 10 µM: 6%
SR
  growth at 0.01 µM: 23%
HOP-92 [2]
  growth at 10 µM: 42%
SN12C [3]
  growth at 100 µM: -47%
HOP-92 [4]
  growth at 1 µM: 27%
PC-3
  growth at 1 µM: 18%
SW-620 [5]; read-out: GI50
  GI50: < 0.01 µM
SW-620 [5]; [13]
  CC50: 52.2 µM
SW-620 [5]; read-out: TGI
  TGI: 14.5 µM
SW-620 [5]; read-out: pGI50 (converted)
  GI50: < 0.01 µM
SW-620 [5]; [14]
  CC50: 52.5 µM
SW-620 [5]; read-out: pTGI (converted)
  TGI: 14.5 µM
SF-295 [6]; read-out: GI50
  GI50: < 0.01 µM
SF-295 [6]; [13]
  CC50: 64.5 µM
SF-295 [6]; read-out: TGI
  TGI: 3.21 µM
SF-295 [6]; read-out: pGI50 (converted)
  GI50: < 0.01 µM
SF-295 [6]; [14]
  CC50: 64.6 µM
SF-295 [6]; read-out: pTGI (converted)
  TGI: 3.24 µM
T47D
  growth at 1 µM: 69%
MDA-MB-468
  growth at 0.01 µM: -7%
SNB-19; read-out: GI50
  GI50: < 0.01 µM
SNB-19; [13]
  CC50: > 100 µM
SNB-19; read-out: TGI
  TGI: 46.3 µM
SNB-19; read-out: pGI50 (converted)
  GI50: < 0.01 µM
SNB-19; [14]
  CC50: > 100 µM
SNB-19; read-out: pTGI (converted)
  TGI: 46.8 µM
SW-620 [7]
  growth at 0.01 µM: 16%
SF-268
  growth at 10 µM: 18%
DU-145
  growth at 1 µM: 12%
RPMI-8226
  growth at 1 µM: 52%
SK-OV-3; read-out: GI50
  GI50: < 0.01 µM
SK-OV-3; [13]
  CC50: > 100 µM
SK-OV-3; read-out: TGI
  TGI: < 0.01 µM
SK-OV-3; read-out: pGI50 (converted)
  GI50: < 0.01 µM
SK-OV-3; [14]
  CC50: > 100 µM
SK-OV-3; read-out: pTGI
  TGI: < 0.01 µM
Hs-578T
  growth at 100 µM: -18%
A498
  growth at 10 µM: -17%
OVCAR-5 [8]
  growth at 1 µM: 43%
SN12C [9]
  growth at 0.1 µM: 35%
OVCAR-3
  growth at 10 µM: 12%
SK-MEL-5
  growth at 10 µM: -21%
HCC 2998
  growth at 10 µM: 5%
BT-549
  growth at 0.1 µM: 1%
OVCAR-5 [10]
  growth at 0.1 µM: 54%
HCT-15
  growth at 10 µM: 3%
OVCAR-4
  growth at 0.1 µM: 44%
SF-295 [11]
  growth at 0.1 µM: 5%
NCI-H322M [12]
  growth at 100 µM: -21%
SK-MEL-2
  growth at 100 µM: -51%
NCI-H23
  growth at 100 µM: -42%
